Counter-ions that a name gives are not always drawn.
Assays:
human full-length MKNK1 = target: T1, human full-length MKNK1 (Homo sapiens, UniProt Q9BUB5, T385D); assay: MKNK1 kinase high ATP assay (TR-FRET-based); assay type: biochemical; conditions: ATP final conc. 2 mM, 15 min preincubation, 30 min reaction at 22° C.
T1 construct: purchased Carna Biosciences 02-145; host or cells: insect cells (baculovirus expression system)
Protocol: MKNK1 Kinase High ATP Assay
MKNK1-inhibitory activity at high ATP of compounds of the present invention after their preincubation with MKNK1 was quantified employing the TR-FRET-based MKNK1 high ATP assay as described in the following paragraphs.
(§1) A recombinant fusion protein of Glutathione-S-Transferase (GST, N-terminally) and human full-length MKNK1 (amino acids 1-424 and T344D of accession number BAA 19885.1), expressed in insect cells using baculovirus expression system and purified via glutathione sepharose affinity chromatography, was purchased from Carna Biosciences (product no 02-145) and used as enzyme. As substrate for the kinase reaction the biotinylated peptide biotin-Ahx-IKKRKLTRRKSLKG (C-terminus in amide form) was used, which can be purchased e.g. from the company Biosyntan (Berlin-Buch, Germany).
(§2) For the assay 50 nL of a 100 fold concentrated solution of the test compound in DMSO was pipetted into a black low volume 384 well microtiter plate (Greiner Bio-One, Frickenhausen, Germany), 2 μL of a solution of MKNK1 in aqueous assay buffer [50 mM HEPES pH 7.5, 5 mM magnesium chloride, 1.0 mM dithiothreitol, 0.005% (v/v) Nonidet-P40 (Sigma)] was added and the mixture was incubated for 15 min at 22° C. to allow pre-binding of the test compounds to the enzyme before the start of the kinase reaction. Then the kinase reaction was started by the addition of 3 μL of a solution of adenosine-tri-phosphate (ATP, 3.3 mM=>final conc. in the 5 μL assay volume is 2 mM) and substrate (0.1 μM=>final conc. in the 5 μL assay volume is 0.06 μM) in assay buffer and the resulting mixture was incubated for a reaction time of 30 min at 22° C. The concentration of MKNK1 was adjusted depending of the activity of the enzyme lot and was chosen appropriate to have the assay in the linear range, typical concentrations were in the range of 0.003 μg/mL. The reaction was stopped by the addition of 5 μL of a solution of TR-FRET detection reagents (5 nM streptavidine-XL665 [Cisbio Bioassays, Codolet, France] and 1 nM anti-ribosomal protein S6 (pSer236)-antibody from Invitrogen [#44921G] and 1 nM LANCE EU-W1024 labeled ProteinG [Perkin-Elmer, product no. AD0071]) in an aqueous EDTA-solution (100 mM EDTA, 0.1% (w/v) bovine serum albumin in 50 mM HEPES pH 7.5).
(§3) The resulting mixture was incubated for 1 h at 22° C. to allow the formation of complex between the phosphorylated biotinylated peptide and the detection reagents. Subsequently the amount of phosphorylated substrate was evaluated by measurement of the resonance energy transfer from the Eu-chelate to the streptavidine-XL. Therefore, the fluorescence emissions at 620 nm and 665 nm after excitation at 350 nm were measured in a TR-FRET reader, e.g. a Rubystar (BMG Labtechnologies, Offenburg, Germany) or a Viewlux (Perkin-Elmer). The ratio of the emissions at 665 nm and at […] was taken as the measure for the amount of phosphorylated substrate. The data were normalised (enzyme reaction without inhibitor=0% inhibition, all other assay components but no enzyme=100% inhibition).

human full-lengt MKNK1 = target: T2, human full-lengt MKNK1 (Homo sapiens, UniProt Q9BUB5, T385D); assay: MKNK1 kinase assay (MKNK1 TR-FRET assay); assay type: biochemical; conditions: ATP final conc. 10 μM, 15 min preincubation, 45 min reaction at 22° C.
T2 construct: purchased Carna Biosciences 02-145; host or cells: insect cells (baculovirus expression system)
T2 sequence (Q9BUB5 1-424 isoform Q9BUB5-2 T344D): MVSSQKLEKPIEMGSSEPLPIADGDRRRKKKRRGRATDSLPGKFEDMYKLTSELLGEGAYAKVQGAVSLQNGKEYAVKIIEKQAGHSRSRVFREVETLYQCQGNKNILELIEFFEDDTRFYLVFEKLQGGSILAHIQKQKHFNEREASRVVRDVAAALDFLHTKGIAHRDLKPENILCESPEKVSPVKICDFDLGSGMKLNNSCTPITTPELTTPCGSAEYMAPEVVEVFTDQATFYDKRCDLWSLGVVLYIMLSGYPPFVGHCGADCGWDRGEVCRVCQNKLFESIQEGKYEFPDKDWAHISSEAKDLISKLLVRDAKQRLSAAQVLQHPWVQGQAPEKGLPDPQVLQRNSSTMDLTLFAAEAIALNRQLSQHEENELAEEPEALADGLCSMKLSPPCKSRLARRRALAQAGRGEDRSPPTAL
Text: MKNK1-inhibitory activity of compounds of the present invention was quantified employing the MKNK1 TR-FRET assay as described in the following paragraphs.
as §1, with “human full-lengt” for “human full-length”, “was used” for “was used,”, “e.g. form” for “e.g. from”
as §2, with “16.7 μM=>final” for “3.3 mM=>final”, “10 μM)” for “2 mM)”, “45” for “30”, “0.05 μg/ml.” for “0.003 μg/mL.”
as §3, with “inhibition). Usually the test compounds were tested on the same microtiterplate in 11 different concentrations in the range of 20 μM to 0.1 nM (20 μM, 5.9 μM, 1.7 μM, 0.51 μM, 0.15 μM, 44 nM, 13 nM, 3.8 nM, 1.1 nM, 0.33 nM and 0.1 nM, the dilution series prepared separately before the assay on the level of the 100 fold concentrated solutions in DMSO by serial 1:3.4 dilutions) in duplicate values for each concentration and […] were calculated by a 4 parameter fit.” for “inhibition).”

T1 sequence (Q9BUB5 1-424 isoform Q9BUB5-2 T344D): as above

SMILES | IC50 (human full-length MKNK1) | IC50 (human full-lengt MKNK1)
COc1nccc2oc(-c3cnc4ccc(O[C@@H]5CC[C@H](N)C5)nn34)cc12 [Example 18, (1S,3R)-3-{[3-(4-Methoxyfuro[3,2-c]pyridin-2-yl)imidazo[1,2-b]pyridazin-6-yl]-oxy}cyclopentanamine] | 43 nM | 17 nM
CC(C)Oc1nccc2oc(-c3cnc4ccc(OC[C@H](C)N)nn34)cc12 [Example 19, (2S)-1-({3-[4-(Propan-2-yloxy)furo[3,2-c]pyridin-2-yl]imidazo[1,2-b]pyridazin-6-yl}oxy)propan-2-amine] | 34 nM | 17 nM
COc1nccc2oc(-c3cnc4ccc(OCC(C)(C)N)nn34)cc12 [Example 22, 1-{[3-(4-Methoxyfuro[3,2-c]pyridin-2-yl)imidazo[1,2-b]pyridazin-6-yl]oxy}-2-methylpropan-2-amine] | 79 nM | 14 nM
COc1nccc2oc(-c3cnc4ccc(OCC(CN)c5ccccc5)nn34)cc12 (stereo not shown) [Example 23, 3-{[3-(4-Methoxyfuro[3,2-c]pyridin-2-yl)imidazo[1,2-b]pyridazin-6-yl]oxy}-2-phenylpropan-1-amine] | 57 nM | 32 nM
C[C@H](N)COc1ccc2ncc(-c3cc4c(OCC5CC5)nccc4o3)n2n1 [Example 25, (2S)-1-({3-[4-(Cyclopropylmethoxy)furo[3,2-c]pyridin-2-yl]imidazo[1,2-b]-pyridazin-6-yl}oxy)propan-2-amine] | 28 nM | 16 nM
C[C@@H](N)COc1ccc2ncc(-c3cc4cnccc4o3)n2n1 [Example 26, (2R)-1-{[3-(Furo[3,2-c]pyridin-2-yl)imidazo[1,2-b]pyridazin-6-yl]oxy}propan-2-amine] | 216 nM | 100 nM
N[C@H]1C[C@H](Oc2ccc3ncc(-c4cc5ncccc5o4)n3n2)C1 [Example 28, trans-3-{[3-(Furo[3,2-b]pyridin-2-yl)imidazo[1,2-b]pyridazin-6-yl]oxy}cyclobutanamine] | 13 nM | 7 nM
CC(C)[C@H](N)COc1ccc2ncc(-c3cc4cnccc4o3)n2n1 [Example 30, (2S)-1-{[3-(Furo[3,2-c]pyridin-2-yl)imidazo[1,2-b]pyridazin-6-yl]oxy}-3-methylbutan-2-amine] | 309 nM | 137 nM
COc1nccc2oc(-c3cnc4ccc(O[C@H]5CCC[C@@H]5N)nn34)cc12 [Example 31, (1S,2S)-2-{[3-(4-Methoxyfuro[3,2-c]pyridin-2-yl)imidazo[1,2-b]pyridazin-6-yl]-oxy}cyclopentanamine] | 28 nM | 13 nM

Other lines, results leading:

IC50 (human full-length MKNK1) | IC50 (human full-lengt MKNK1) | SMILES
132 nM | 64 nM | C[C@H](N)COc1ccc2ncc(-c3cc4cnccc4o3)n2n1 [Example 20, (2S)-1-{[3-(Furo[3,2-c]pyridin-2-yl)imidazo[1,2-b]pyridazin-6-yl]oxy}propan-2-amine]
31 nM | 10 nM | COc1nccc2oc(-c3cnc4ccc(O[C@H]5CC[C@H](N)CC5)nn34)cc12 [Example 21, trans-4-{[3-(4-Methoxyfuro[3,2-c]pyridin-2-yl)imidazo[1,2-b]pyridazin-6-yl]-oxy}cyclohexanamine salt with formic acid]
4 nM | 3 nM | CC(C)(C)COc1nccc2oc(-c3cnc4ccc(O[C@H]5C[C@H](N)C5)nn34)cc12 [Example 24, trans-3-({3-[4-(2,2-Dimethylpropoxy)furo[3,2-c]pyridin-2-yl]imidazo[1,2-b]-pyridazin-6-yl}oxy)cyclobutanamine]
259 nM | 153 nM | COc1nccc2oc(-c3cnc4ccc(OCC5(CN)COC5)nn34)cc12 [Example 27, 1-[3-({[3-(4-Methoxyfuro[3,2-c]pyridin-2-yl)imidazo[1,2-b]pyridazin-6-yl]-oxy}methyl)oxetan-3-yl]methanamine]
16 nM | 8 nM | N[C@H]1C[C@H](Oc2ccc3ncc(-c4cc5cnccc5o4)n3n2)C1 [Example 29, trans-3-{[3-(Furo[3,2-c]pyridin-2-yl)imidazo[1,2-b]pyridazin-6-yl]oxy}cyclobutanamine]

Reference: patent US9643974B2, “Amino-substituted imidazopyridazines” (Bayer Intellectual Property GmbH, priority 2011, dated 2017)
